Where two headings read alike, the source gives them in different places.

The values below come from patent US20060014193A1, “Nucleoside phosphoramidates and nucleoside phosphoramidases” (priority 2004, published 2006).

The target of experiment [1] is T1, E. coli hinT (Escherichia coli, UniProt P0ACE7).
T1 sequence (P0ACE7 1-119): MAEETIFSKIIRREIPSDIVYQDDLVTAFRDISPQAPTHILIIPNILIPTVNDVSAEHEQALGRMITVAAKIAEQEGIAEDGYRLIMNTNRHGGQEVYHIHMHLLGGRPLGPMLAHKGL
The experiment in a line: Phosphoramidase fluorescence assay. Type of experiment: biochemical. Particulars: Table 5. The source says:
The fluorescence of tryptophan (ex, 280 nm, em 360 nm) can be quenched when covalently attached to a nucleoside monophosphate, and nucleoside phosphoramidates of D- and L-tryptophan and tryptamine are excellent fluorescent substrates for hHINT1. […] Based on the generation of chimeric polypeptides between the hHINTI and the hinT of E. coli, the preference for D enantiomers by the human HINT1 polypeptide is likely conferred by the C-terminus amino acids (e.g., the C-terminus 5, 6, 5 7, 8, 9, 10, or 11 amino acids) of the hHINT1 enzyme. […] In addition, both D-tryptophan phosphoramidates of cytosine and uridine were substrates. Initial rates were determined 10 during the first 10-20% of the reaction for variable substrate concentrations. The Michaelis-Menten constants, kcat and Km, for selected nucleoside phosphosphoramidates have been determined. […] As observed in the initial screening assay, for phosphoramidates containing L-tryptophan, hHINT1 has a 7-fold greater preference for AMP phosphoramidates of L-tryptophan than GMP.
In addition, the Michaelis-Menten constants, kcat and Km, for selected nucleoside phosphosphoramidates were determined for both human Hint1 and E. coli hinT (Table 5).

Experiment [2] has as its target T2, hHINT1 (Homo sapiens, UniProt P49773). The experiment in a line: Phosphoramidase fluorescence assay. Type of experiment: biochemical. Particulars: for Kcat / Km: Table 5. As for the experimental part: The fluorescence of tryptophan (ex, 280 nm, em 360 nm) can be quenched when covalently attached to a nucleoside monophosphate, and nucleoside phosphoramidates of D- and L-tryptophan and tryptamine are excellent fluorescent substrates for hHINT1. Typically, after measurement of initial substrate fluorescence, hHINT1 was added to the reaction solution (HEPES buffer, pH 7.2, 25° C.) and the change in fluorescence over 2 min was determined by converting the slope into μM of substrate hydrolyzed per μg of enzyme per min with a standard curve. […] Based on the generation of chimeric polypeptides between the hHINTI and the hinT of E. coli, the preference for D enantiomers by the human HINT1 polypeptide is likely conferred by the C-terminus amino acids (e.g., the C-terminus 5, 6, 5 7, 8, 9, 10, or 11 amino acids) of the hHINT1 enzyme. […] In addition, both D-tryptophan phosphoramidates of cytosine and uridine were substrates. Initial rates were determined 10 during the first 10-20% of the reaction for variable substrate concentrations. The Michaelis-Menten constants, kcat and Km, for selected nucleoside phosphosphoramidates have been determined. (Table 4). As observed in the initial screening assay, for phosphoramidates containing L-tryptophan, hHINT1 has a 7-fold greater preference for AMP phosphoramidates of L-tryptophan than GMP.

Another experiment concerns the target T3, Rabbit HINT1 (Oryctolagus cuniculus, UniProt P80912).
T3 construct: made in house; host or cells: E. coli hinT deletion mutant
Put plainly: 31P NMR phosphoramidase assay of purified protein. Type of experiment: biochemical. Particulars: for Specific activity: 10 mM substrate, pH 7.2, 22° C. As for the experimental part:
(§1) Phosphoramidase activity in cell lysates was measured by the ^1H-decoupling mode of phosphorus-31 NMR spectroscopy (Varian VAC-300 spectrometer), which can clearly distinguish the substrate, AMP-NH2, and the product, adenosine 5′-monophosphate (AMP). NMR spectrometry is suitable for quantitation by integration of the area under the peak, which is proportional to the amount of nuclei present. The relative ratio of peak areas can be used to calculate the amount of turnover corrected based on a standard curve.
(§2) Cell lysates from E. coli Tuner(DE3)pLacI cells (Novagen) were obtained by treatment with lysozyme (1 mg/ml) and the DNA was precipitated by protamine sulfate followed by centrifugation to remove cell debris. The supernatant was dialyzed extensively against Buffer A (20 mM Tris (pH 7.0); 1 mM EDTA; 1 mM DTT, 0.01 mM PMSF) to remove cellular phosphates and nucleotides. Phosphate free cell lysates (0.75 mg total protein) were incubated with 5 mM AMP-NH2 in 0.5 ml reaction buffer (0.5 mM MgCl2, 20 mM HEPES (pH 7.2)) at 37° C. for intervals of 15 min, 30 min, and 12 h. The reactions were terminated by snap freezing in a dry ice/acetone slush bath and lyophilized for 5 h. The samples were then dissolved in NMR buffer (600 μL, 50 mM EDTA, 20 mM HEPES (pH 7.2), and 1 mM TMP (trimethylphosphate, internal standard)) and the insoluble portion was spun down by centrifugation at 12,500×g for 5 min. A ^31P NMR spectrum was then collected for the supernatant. For the low pH control experiment, 10 mM AMP-NH2 in reaction buffer (500 μL, pH 2.0) was incubated at 37° C. for 12 h and the 31p signal was detected under the same conditions.
(§3) Five recombinant purified proteins were tested with three commercial available compounds (Sigma): AMP-NH2, adenosine 5′-monophosphomorpholidate (AMP-Mor), and guanosine 5′-monophosphomorpholidate (GMP-Mor) (FIG. 1). The compounds (10 mM) were incubated with proteins (2.5-10 μg) in the reaction buffer (500 μL, 0.5 mM MgCl2, 20 mM HEPES (pH 7.2)) at 22° C. for intervals of 36 and 66 min. The reactions were quenched by adding 5 M NaOH (20 μL), followed by snap freezing in a dry ice/acetone slush bath, and lyophilized. The sample preparation for ^31P NMR measurement was as described above for the cell-lysate experiment except that the pH was adjusted by the addition of 12 μL 6 M HCl before NMR spectra were collected.

The target in experiment [3] is T2, hHINT1. Put plainly: 31P NMR phosphoramidase assay of purified protein. The experiment is classed as biochemical. Particulars: for Specific activity: 10 mM substrate, pH 7.2, 22° C. As to the method: as §1, §2, §3
Another experiment has as its target T4, E. coli hinT-DHFR (Escherichia coli, UniProt P0ABQ4+P0ACE7).
T4 construct: made in house; host or cells: E. coli Tuner(DE3)pLacI
Put plainly: 31P NMR phosphoramidase assay of purified protein. Type of experiment: biochemical. The note with it: 10 mM substrate, pH 7.2, 22° C. As to the method: as §1, §2, §3

In another experiment the target is T5, Human Hint1-DHFR (UniProt P0ABQ4+P49773).
T5 construct: made in house; host or cells: E. coli (following the procedure for the hinT plasmid)
Put plainly: 31P NMR phosphoramidase assay of purified protein. The experiment is classed as biochemical. Particulars: 10 mM substrate, pH 7.2, 22° C. As to the method: as §1, §2, §3

Experiment [4] has as its target T1, E. coli hinT. Put plainly: 31P NMR phosphoramidase assay of purified protein. The note with it: for Specific activity: 10 mM substrate, pH 7.2, 22° C. The experiment is classed as biochemical. As to the method:
as §1, §2, §3

The target in experiment [5] is T2, hHINT1. The note with it: literature (J. Biol. Chem. 2004, 279, 18711; 2002, 277, 10852); cited from earlier work.
Experiment [6] deals with T2, hHINT1. The experiment in a line: Catalytic activity (velocity) of cloned, purified phosphoramidase with AMPNH2. Type of experiment: biochemical. The text has this:
The enzyme responsible for hydrolysis of AZT amino acid phosphoramidates was cloned and characterized. After construction of a cDNA library from peripheral blood mononuclear cells (PBMCs) in T7Select10-3b phage, the phage display technique was employed to isolate the enzyme by affinity chromatography. After three rounds of phage selection and ampilification with an affinity column constructed from the L-tryptophan carbamate, DNA from ten selected plaques was amplified by PCR and sequenced. […] Hint1 is a member of the HIT protein superfamily, which consists of a recently identified adenosine 5′-monophosphoramide hydrolases from rabbit and yeast.
Velocity of the enzymes was determined at pH 7.2 at room temperature in the presence of 10 mM AMPNH2.

[7] abbreviates: FIG. 5 substrate preference screen.

Regarding `Cc1cn([C@H]2C[C@H](O)[C@@H](COP(=O)(O)NCCc3c[nH]c4ccccc34)O2)c(=O)[nH]c1=O` [TMP-Tryptamine], the Kcat was 0.014 ± 0.001 s⁻¹ on E. coli hinT [1] and 0.044 ± 0.01 s⁻¹ at hHINT1 [2]. For the same compound, the Km on E. coli hinT [1] is 35.9 ± 2.27 µM; at hHINT1 [2], 26.1 ± 2.78 µM.

As to `Nc1ncnc2c1ncn2[C@@H]1O[C@H](COP(=O)(O)NCCc2c[nH]c3ccccc23)[C@@H](O)[C@@H]1O` [Ara-AMP-Tryptamine], at E. coli hinT [1], the Kcat amounted to 0.95 ± 0.17 s⁻¹ and the Km was found to be 34.6 ± 5.64 µM. At hHINT1 [2], the Kcat was found to be 0.85 ± 0.1 s⁻¹ and the Michaelis-Menten constant (Km) turned out to be 0.79 ± 0.11 µM.

As for `Nc1nc2c(ncn2[C@@H]2O[C@H](COP(=O)(O)N3CCOCC3)[C@@H](O)[C@H]2O)c(=O)[nH]1` [GMP-Mor, guanosine 5′-monophosphomorpholidate], the “Preference for GMP-Mor over AMP-Mor” value on Rabbit HINT1, at hHINT1 [3] and on E. coli hinT [4] was 2 fold throughout. In addition, the Specific activity at Rabbit HINT1 worked out at 48.6 ± 0.4 nmol nmol^−1 min^−1; at hHINT1 [3], 78.7 ± 1.3 nmol nmol^−1 min^−1; at E. coli hinT-DHFR, 675 ± 17 nmol nmol^−1 min^−1; on Human Hint1-DHFR, 87.2 ± 11.8 nmol nmol^−1 min^−1; at E. coli hinT [4], 669 ± 1 nmol nmol^−1 min^−1.

With `Nc1nc2c(ncn2C2OC(COP(=O)(O)NC(Cc3c[nH]c4ccccc34)C(=O)O)C(O)C2O)c(=O)[nH]1` [GMP D-tryptophan phosphoramidate, guanosine monophosphate (GMP) D-tryptophan phosphoramidate], at hHINT1 [2] (setting [7]), the “Activity relative to 7-benzyl guanosine monophosphate (7-Bn GMP)” value is on record as “approximately 7 fold” and the “Activity relative to GMP L-tryptophan” value is listed as “nearly identical”.

Turning to `Nc1ncnc2c1ncn2[C@@H]1O[C@H](COP(=O)(O)N2CCOCC2)[C@@H](O)[C@H]1O` [AMP-Mor, adenosine 5′-monophosphomorpholidate], the Specific activity at Rabbit HINT1 worked out at 26.6 ± 0.6 nmol nmol^−1 min^−1; on hHINT1 [3], 45.0 ± 0 nmol nmol^−1 min^−1; at E. coli hinT-DHFR, 411 ± 4 nmol nmol^−1 min^−1; at Human Hint1-DHFR, 43.4 ± 4.0 nmol nmol^−1 min^−1; on E. coli hinT [4], 360 ± 1 nmol nmol^−1 min^−1.

Consider `Nc1ncnc2c1ncn2[C@@H]1O[C@H](COP(=O)(O)NCCc2c[nH]c3ccccc23)[C@@H](O)[C@H]1O` [AMP-Tryptamine], for which, at E. coli hinT [1], the Kcat was 4.07 ± 0.11 s⁻¹ and the Km is 5.03 ± 0.21 µM. Moreover, at hHINT1 [2], the Kcat came out at 2.05 ± 0.27 s⁻¹ and the Km is 0.25 ± 0.05 µM.

`O=c1ccn([C@@H]2O[C@H](COP(=O)(O)NCCc3c[nH]c4ccccc34)[C@@H](O)[C@H]2O)c(=O)[nH]1` [UMP-Tryptamine]: on E. coli hinT [1], the Kcat is 1.63 ± 0.22 s⁻¹ and the Km is 25.1 ± 3.56 µM. Besides, on hHINT1 [2], the Kcat is 1.85 ± 0.29 s⁻¹ and the Michaelis-Menten constant (Km) is 1.42 ± 0.25 µM.

`O=c1[nH]cnc2c1ncn2[C@@H]1O[C@H](COP(=O)(O)NCCc2c[nH]c3ccccc23)[C@@H](O)[C@H]1O` [IMP-Tryptamine]: at E. coli hinT [1], the Kcat is 3.89 ± 0.18 s⁻¹ and the Km was determined as 13.7 ± 0.67 µM. Also, at hHINT1 [2], the Kcat is 2.53 ± 0.09 s⁻¹ and the Michaelis-Menten constant (Km) was determined as 0.71 ± 0.03 µM.

With `COC(=O)[C@@H](Cc1c[nH]c2ccccc12)NP(=O)(O)OC[C@H]1O[C@@H](n2cnc3c(=O)[nH]c(N)nc32)[C@H](O)[C@@H]1O` [GMP-D-TrpCOOMe], on E. coli hinT [1], the Kcat was determined as 1.75 ± 0.05 s⁻¹ and the Km was 21.3 ± 1.21 µM. In addition, on hHINT1 [2], the Kcat was 0.29 ± 0.02 s⁻¹ and the Michaelis-Menten constant (Km) came to 3.27 ± 0.58 µM.

Take `Nc1ncnc2c1ncn2[C@@H]1O[C@H](COP(=O)(O)NCCCC[C@H](N)C(=O)O)[C@@H](O)[C@H]1O` [AMP-lysine]: on hHINT1 [5], the Kcat was 0.234 ± 0.011 s⁻¹ and the Michaelis-Menten constant (Km) is 0.472 ± 0.057 µM.

As for AZT tryptophan phosphoramidate, on hHINT1 [6], the “Hydrolysis by over-expressed, purified human Hint1” value is given as “to a lesser extent”.

Consider `Nc1nc2c(ncn2[C@@H]2O[C@H](COP(=O)(O)NCCc3c[nH]c4ccccc34)[C@@H](O)[C@H]2O)c(=O)[nH]1` [GMP-Tryptamine], for which the figures for the Kcat at E. coli hinT [1] and at hHINT1 [2] were 3.45 ± 0.3 s⁻¹ and 2.09 ± 0.16 s⁻¹, respectively. The figures for the Km on E. coli hinT [1] and at hHINT1 [2] were 5.34 ± 0.69 µM and 0.243 ± 0.03 µM, respectively.
